Test results from patent US20040157930A1, “Histone deacetylase enzyme-inhibiting derivatives of hydroxamic acid as new cytokine synthesis-inhibiting anti-inflammatory drugs” (priority 2001, published 2004).

System: Con A-induced liver injury
Assay: Con A-induced liver injury, serum ALT
Assay type: in vivo, C57B16 mice
Conditions: single dose 50 mg/kg i.p. 1 h before Con A i.v.; vehicle 15.190±2.580
Procedure: After 24 h, serum amino-alanine transferase was measured. Intravenous injection of Con A results in hepatic cell death within 12-24 h with markedly elevated serum levels of hepatic enzymes such as alanine amino transaminase (ALT).

Q: With O=C(CCCCCCC(=O)Nc1ccccc1)NO [SAHA, suberoylanilide hydroxamic acid] as the compound, how does the “24-h level of serum ALT (mean±SE)” value read?
A: 8.144±2.091 units/liter
